The values below come from the NIST ThermoML archive (doi:10.1016/j.jct.2014.12.022).

± gives the expanded uncertainty stated by the source.

The nature of data set [1]: molar heat capacity at constant pressure. The following applies: 101.33 kPa, Liquid, Small sample (50 mg) DSC.
The conditions of data set [2]: 101.33 kPa, Liquid; for speed of sound: Sing-around technique in a fixed-path interferometer; for mass density: Vibrating tube method.

A word on the speed of sound: it is the propagation velocity of pressure waves in the medium. In general, mass density refers to mass per unit of volume. Turning to `CN1CCCC1=O` [N-methylpyrrolidone], the figures for the “molar heat capacity at constant pressure” value in data set [1] (293.15 K), in data set [1] (298.15 K) and in data set [1] (303.15 K) were 165.44 ± 3.3 J/K/mol, 166.22 ± 3.3 J/K/mol and 166.92 ± 3.3 J/K/mol, respectively. Besides, the speed of sound in data set [2] (293.15 K) came to 1565.6 ± 1.6 m/s; in data set [2] (298.15 K), 1546.1 ± 1.6 m/s; in data set [2] (303.15 K), 1527.3 ± 1.6 m/s. The mass density turned out to be 1033.3 ± 1 kg/m3 in data set [2] (293.15 K), 1028.3 ± 1 kg/m3 in data set [2] (298.15 K) and 1023.5 ± 1 kg/m3 in data set [2] (303.15 K).
On to `c1ccccc1` [benzene], for which the “molar heat capacity at constant pressure” value amounted to 133.58 ± 2.7 J/K/mol in data set [1] (293.15 K), 135.28 ± 2.7 J/K/mol in data set [1] (298.15 K) and 136.58 ± 2.7 J/K/mol in data set [1] (303.15 K). Besides, the speed of sound in data set [2] (293.15 K) stood at 1322.6 ± 1.5 m/s; in data set [2] (298.15 K) it was 1299.4 ± 1.5 m/s; in data set [2] (303.15 K) it was 1276.2 ± 1.5 m/s. The mass density turned out to be 878.89 ± 1 kg/m3 in data set [2] (293.15 K), 873.54 ± 1 kg/m3 in data set [2] (298.15 K) and 868.2 ± 1 kg/m3 in data set [2] (303.15 K).
